{"source": "patent US20250144067A1", "about": "“PERSONALIZED STARVATION THERAPY FOR CANCER” (Faeth Therapeutics, Inc., priority 2021, published 2025)", "key": {"[1]": {"test_system": "NCI-H292 lung cancer cells", "assay": "FDA drug screening, complete media vs cholesterol-free media without statin (TABLE 1)", "format": "cell-based, human"}, "[2]": {"test_system": "NCI-H292 lung cancer cells", "assay": "FDA drug screening, complete media vs cholesterol-free media with simvastatin (TABLE 2)", "format": "cell-based, human", "details": "for Cholesterol-free media + simvastatin (0.04 μM) / Complete Media: NCI-H292 cells"}, "[3]": {"details": "Complete minus Cholesterol-free, >0 enhanced anti-cancer activity, about 0 neutral, <0 antagonist"}, "[4]": {"details": "NCI-H292 cells, cholesterol-free media without statin, FDA drug library screen"}, "[5]": {"details": "NCI-H292 cells, complete media, FDA drug library screen"}, "[6]": {"details": "drug in cholesterol-free media with simvastatin 0.04 μM"}, "[7]": {"details": "complete media vs cholesterol-free media + simvastatin (0.04 μM), >0 enhanced anti-cancer activity, about 0 neutral, <0 antagonist"}, "[8]": {"details": "FDA drug library screen, cholesterol-free media with simvastatin 0.04 μM"}, "[9]": {"details": "FDA drug library screen, complete media"}, "[10]": {"details": "complete media minus cholesterol-free media + simvastatin, >0 enhanced anti-cancer activity, about 0 neutral, <0 antagonist"}, "[11]": {"details": "cholesterol-free media with simvastatin 0.04 μM, cell growth value in FDA drug screen"}, "[12]": {"details": "complete media, cell growth value in FDA drug screen"}, "[13]": {"details": "Complete minus Cholesterol-free, greater than 0 enhanced anti-cancer activity, about 0 neutral, below 0 antagonist"}, "[14]": {"details": "NCI-H292 cells, FDA drug library screen, cholesterol-free media without statin"}, "[15]": {"details": "NCI-H292 cells, FDA drug library screen, complete media"}, "[16]": {"details": "NCI-H292 cells, cholesterol-free media without statin"}, "[17]": {"details": "FDA library drug in cholesterol-free media with simvastatin 0.04 μM"}, "[18]": {"details": "FDA library drug in complete media"}, "[19]": {"details": "Complete minus Cholesterol-free, […]"}, "[20]": {"details": "complete media vs cholesterol-free media + simvastatin (0.04 μM), […]"}}, "note": "Where a name gives a salt, the structure may show the parent alone."}
{"compound": "Cobimetinib (hemifumarate)", "values": [{"measurement": "Difference", "setting": "[1]; [3]", "result": 0.01}, {"measurement": "Cholesterol-free", "setting": "[1]; [4]", "result": 0.2855}, {"measurement": "Complete", "setting": "[1]; [5]", "result": 0.2917}, {"measurement": "Cholesterol-free media + simvastatin (0.04 μM)", "setting": "[2]; [6]", "result": 0.5239}, {"measurement": "Complete Media", "setting": "[2]; drug in complete media", "result": 0.3203}, {"measurement": "Difference", "setting": "[2]; [7]", "result": "−0.20"}]}
{"compound": "Nc1ccn([C@@H]2O[C@H](CO)[C@@H](O)C2(F)F)c(=O)n1", "note": "[Gemcitabine (hydrochloride)]", "values": [{"measurement": "Difference", "setting": "[1]; [3]", "result": "−0.04"}, {"measurement": "Cholesterol-free", "setting": "[1]; [4]", "result": 0.05262}, {"measurement": "Complete", "setting": "[1]; [5]", "result": 0.01403}, {"measurement": "Cholesterol-free media + simvastatin (0.04 μM)", "setting": "[2]; cholesterol-free media with simvastatin 0.04 μM, FDA drug library screen (TABLE 2)", "result": 0.04392}, {"measurement": "Complete Media", "setting": "[2]; complete media, FDA drug library screen (TABLE 2)", "result": 0.02306}, {"measurement": "Difference", "setting": "[2]; complete media minus cholesterol-free media + simvastatin (0.04 μM), >0 enhanced anti-cancer activity, about 0 neutral, <0 antagonist", "result": "−0.02"}]}
{"compound": "COc1ccccc1N1CCN(CCCNc2cc(=O)n(C)c(=O)n2C)CC1", "note": "[Urapidil]", "values": [{"measurement": "Difference", "setting": "[1]; Complete minus Cholesterol-free, greater than 0 enhanced anti-cancer activity, about 0 neutral, below 0 antagonists", "result": "−0.56"}, {"measurement": "Cholesterol-free", "setting": "[1]; NCI-H292 cells in cholesterol-free media without statin", "result": 1.658}, {"measurement": "Complete", "setting": "[1]; NCI-H292 cells in complete media", "result": 1.095}, {"measurement": "Cholesterol-free media + simvastatin (0.04 μM)", "setting": "[2]; [8]", "result": 1.097}, {"measurement": "Complete Media", "setting": "[2]; [9]", "result": 1.271}, {"measurement": "Difference", "setting": "[2]; [10]", "result": 0.17}]}
{"compound": "NC(=O)c1cnc2[nH]ccc2c1N[C@@H]1[C@@H]2CC3C[C@H]1C[C@@](O)(C3)C2", "note": "[Peficitinib]", "values": [{"measurement": "Difference", "setting": "[1]; [3]", "result": "−0.03"}, {"measurement": "Cholesterol-free", "setting": "[1]; [4]", "result": 1.336}, {"measurement": "Complete", "setting": "[1]; [5]", "result": 1.303}, {"measurement": "Cholesterol-free media + simvastatin (0.04 μM)", "setting": "[2]; [11]", "result": 0.6674}, {"measurement": "Complete Media", "setting": "[2]; [12]", "result": 0.776}, {"measurement": "Difference", "setting": "[2]; [10]", "result": 0.11}]}
{"compound": "COc1cc2nccc(Oc3ccc(NC(=O)NC4CC4)c(Cl)c3)c2cc1C(N)=O", "note": "[Lenvatinib]", "values": [{"measurement": "Difference", "setting": "[1]; [13]", "result": "−0.11"}, {"measurement": "Cholesterol-free", "setting": "[1]; [14]", "result": 1.182}, {"measurement": "Complete", "setting": "[1]; [15]", "result": 1.077}, {"measurement": "Cholesterol-free media + simvastatin (0.04 μM)", "setting": "[2]; [6]", "result": 1.178}, {"measurement": "Complete Media", "setting": "[2]; drug in complete media", "result": 1.01}, {"measurement": "Difference", "setting": "[2]; [7]", "result": "−0.17"}]}
{"compound": "CN(C)CC/C=C1/c2ccccc2COc2ccc(CC(=O)O)cc21", "note": "[Olopatadine (hydrochloride)]", "values": [{"measurement": "Difference", "setting": "[1]; [13]", "result": "−0.13"}, {"measurement": "Cholesterol-free", "setting": "[1]; [14]", "result": 1.018}, {"measurement": "Complete", "setting": "[1]; [15]", "result": 0.8917}, {"measurement": "Cholesterol-free media + simvastatin (0.04 μM)", "setting": "[2]; [8]", "result": 0.9644}, {"measurement": "Complete Media", "setting": "[2]; [9]", "result": 0.8474}, {"measurement": "Difference", "setting": "[2]; [7]", "result": "−0.12"}]}
{"compound": "CN(c1nccc(=O)[nH]1)C1CCN(c2nc3ccccc3n2Cc2ccc(F)cc2)CC1", "note": "[Mizolastine]", "values": [{"measurement": "Difference", "setting": "[1]; [13]", "result": "−0.17"}, {"measurement": "Cholesterol-free", "setting": "[1]; [14]", "result": 1.446}, {"measurement": "Complete", "setting": "[1]; [15]", "result": 1.273}, {"measurement": "Cholesterol-free media + simvastatin (0.04 μM)", "setting": "[2]; [8]", "result": 0.9531}, {"measurement": "Complete Media", "setting": "[2]; [9]", "result": 0.8007}, {"measurement": "Difference", "setting": "[2]; [7]", "result": "−0.15"}]}
{"compound": "C=CCCCCCCCCC(=O)O", "note": "[10-Undecenoic acid (zinc salt)]", "values": [{"measurement": "Difference", "setting": "[1]; [3]", "result": "−0.19"}, {"measurement": "Cholesterol-free", "setting": "[1]; [16]", "result": 1.263}, {"measurement": "Complete", "setting": "[1]; NCI-H292 cells, complete media", "result": 1.076}, {"measurement": "Cholesterol-free media + simvastatin (0.04 μM)", "setting": "[2]; [17]", "result": 1.561}, {"measurement": "Complete Media", "setting": "[2]; [18]", "result": 1.235}, {"measurement": "Difference", "setting": "[2]; [7]", "result": "−0.33"}]}
{"compound": "Baricitinib (phosphate)", "values": [{"measurement": "Difference", "setting": "[1]; [19]", "result": "−0.20"}, {"measurement": "Cholesterol-free", "setting": "[1]; [16]", "result": 0.7762}, {"measurement": "Complete", "setting": "[1]; NCI-H292 cells, complete media", "result": 0.5811}, {"measurement": "Cholesterol-free media + simvastatin (0.04 μM)", "setting": "[2]; [8]", "result": 0.6632}, {"measurement": "Complete Media", "setting": "[2]; [9]", "result": 0.5619}, {"measurement": "Difference", "setting": "[2]; [20]", "result": "−0.10"}]}
{"compound": "O=Cc1ccc(O[C@@H]2O[C@H](CO)[C@@H](O)[C@@H](O)[C@H]2O)cc1", "note": "[Helicid]", "values": [{"measurement": "Difference", "setting": "[1]; [19]", "result": "−0.20"}, {"measurement": "Cholesterol-free", "setting": "[1]; [16]", "result": 1.202}, {"measurement": "Complete", "setting": "[1]; NCI-H292 cells, complete media", "result": 1.003}, {"measurement": "Cholesterol-free media + simvastatin (0.04 μM)", "setting": "[2]; [6]", "result": 1.093}, {"measurement": "Complete Media", "setting": "[2]; drug in complete media", "result": 0.9239}, {"measurement": "Difference", "setting": "[2]; [20]", "result": "−0.17"}]}
{"compound": "CN(C)/N=N/c1[nH]cnc1C(N)=O", "note": "[Dacarbazine]", "values": [{"measurement": "Difference", "setting": "[1]; [13]", "result": "−0.11"}, {"measurement": "Cholesterol-free", "setting": "[1]; [14]", "result": 1.191}, {"measurement": "Complete", "setting": "[1]; [15]", "result": 1.077}, {"measurement": "Cholesterol-free media + simvastatin (0.04 μM)", "setting": "[2]; [8]", "result": 1.089}, {"measurement": "Complete Media", "setting": "[2]; [9]", "result": 0.9656}, {"measurement": "Difference", "setting": "[2]; [7]", "result": "−0.12"}]}
{"compound": "CCOc1ccccc1C(N)=O", "note": "[2-Ethoxybenzamide]", "values": [{"measurement": "Difference", "setting": "[1]; [3]", "result": "−0.07"}, {"measurement": "Cholesterol-free", "setting": "[1]; [4]", "result": 1.024}, {"measurement": "Complete", "setting": "[1]; [5]", "result": 0.9559}, {"measurement": "Cholesterol-free media + simvastatin (0.04 μM)", "setting": "[2]; [8]", "result": 1.119}, {"measurement": "Complete Media", "setting": "[2]; [9]", "result": 0.9754}, {"measurement": "Difference", "setting": "[2]; [7]", "result": "−0.14"}]}
{"compound": "CC(=O)N(CC(O)CO)c1c(I)c(C(=O)NCC(O)CO)c(I)c(C(=O)NCC(O)CO)c1I", "note": "(stereo not drawn) [Iohexol]", "values": [{"measurement": "Difference", "setting": "[1]; [13]", "result": "−0.14"}, {"measurement": "Cholesterol-free", "setting": "[1]; [14]", "result": 1.062}, {"measurement": "Complete", "setting": "[1]; [15]", "result": 0.9228}, {"measurement": "Cholesterol-free media + simvastatin (0.04 μM)", "setting": "[2]; [17]", "result": 1.632}, {"measurement": "Complete Media", "setting": "[2]; [18]", "result": 0.8317}, {"measurement": "Difference", "setting": "[2]; [7]", "result": "−0.80"}]}
{"compound": "CC1CC(OC(=O)c2ccccc2O)CC(C)(C)C1", "note": "(stereo not drawn) [Homosalate]", "values": [{"measurement": "Cholesterol-free", "setting": "[1]; [16]", "result": 0.9096}, {"measurement": "Complete", "setting": "[1]; NCI-H292 cells, complete media", "result": 0.5831}, {"measurement": "Difference", "setting": "[1]; complete vs cholesterol-free media, greater than 0 enhanced anti-cancer activity, about 0 neutral, below 0 antagonists", "result": "−0.33"}, {"measurement": "Cholesterol-free media + simvastatin (0.04 μM)", "setting": "[2]; [11]", "result": 1.411}, {"measurement": "Complete Media", "setting": "[2]; [12]", "result": 1.442}, {"measurement": "Difference", "setting": "[2]; [10]", "result": 0.03}]}
{"compound": "COC(=O)[C@@H]1CC2=CC(=O)CC[C@]2(C)[C@@]23O[C@@H]2C[C@@]2(C)[C@@H](CC[C@@]24CCC(=O)O4)[C@H]13", "note": "[Eplerenone]", "values": [{"measurement": "Cholesterol-free", "setting": "[1]; [4]", "result": 1.018}, {"measurement": "Complete", "setting": "[1]; [5]", "result": 1.291}, {"measurement": "Difference", "setting": "[1]; complete vs cholesterol-free media, >0 enhanced anti-cancer activity, about 0 neutral, <0 antagonist", "result": 0.27}, {"measurement": "Cholesterol-free media + simvastatin (0.04 μM)", "setting": "[2]; [6]", "result": 1.039}, {"measurement": "Complete Media", "setting": "[2]; drug in complete media", "result": 0.8449}, {"measurement": "Difference", "setting": "[2]; [7]", "result": "−0.19"}]}
